Test results reported in patent publication US8921552B2, “Benzothiazole hybrids useful as anticancer agents and process for the preparation thereof” (Council of Scientific & Industrial Research, priority 2011, dated 2014).

Assays:
PC-3 = experiment: In vitro cytotoxicity, SRB assay, prostate cancer cell line PC-3; type: cell-based, human; settings: PC-3 (prostate); for inhibition at 10 µM: Homo sapiens, 48 h exposure, read-out: % of growth inhibition
Description: (§1) The benzothiazole hybrids has been tested against seven human tumor cell lines derived from six cancer types (lung cancer, colon cancer, CNS cancer, ovarian cancer, prostate cancer and breast cancer). For these compounds results are expressed as percent of cell growth inhibition relative to that of untreated control cells.

A-549 = experiment: In vitro cytotoxicity, SRB assay, lung cancer cell line A-549; type: cell-based, human; settings: A-549 (lung); for inhibition at 10 µM: Homo sapiens, A549, 48 h exposure, read-out: % of growth inhibition
Description: as §1

IGR-OV-1 = experiment: In vitro cytotoxicity, SRB assay, ovarian cancer cell line IGR-OV-1; type: cell-based, human; settings: IGR-OV-1 (ovarian); for inhibition at 10 µM: Homo sapiens, IGROV-1, 48 h exposure, read-out: % of growth inhibition
Description: as §1

MCF7 = experiment: In vitro cytotoxicity, SRB assay, breast cancer cell line MCF7; type: cell-based, human; settings: for inhibition at 10 µM: Homo sapiens, 48 h exposure, read-out: % of growth inhibition
Description: as §1

Colo-205 = experiment: In vitro cytotoxicity, SRB assay, colon cancer cell line Colo-205; type: cell-based, human; settings: Colo-205 (colon); for inhibition at 10 µM: Homo sapiens, 48 h exposure, read-out: % of growth inhibition
Description: as §1

SF-295 = experiment: In vitro cytotoxicity, SRB assay, CNS cancer cell line SF-295; type: cell-based, human; settings: SF-295 (CNS); for inhibition at 10 µM: Homo sapiens, 48 h exposure, read-out: % of growth inhibition
Description: as §1

human tumor cell lines = experiment: In vitro anticancer activity, panel of seven human tumor cell lines (SRB assay); type: cell-based; settings: Homo sapiens; range over the cell lines, 10 μM, exposure period of at least 48 hrs; read-out: percentage growth inhibition for invitro anticancer activity
Experimental: as §1, with “cells. A protocol of 48 h continuous drug exposure has been used, and a sulforhodamine B (SRB) protein assay was used to estimate cell viability or growth.” for “cells.”
(§2) The compounds 9b, 9h, 9m, 9r, 15c, 15h, 15m, 15r, 10b, 10h, 10m, 10r, 16c, 16h and 16m were evaluated for in vitro anticancer activity against seven human tumor cells derived from six cancer types (lung cancer, colon cancer, CNS cancer, ovarian cancer, prostate cancer and breast cancer) at concentration of 10 μM and the results are shown in Table 1.

SW-620 [1] = experiment: In vitro cytotoxicity, SRB assay, colon cancer cell line SW-620; type: cell-based, human; settings: SW-620 (colon), reference drug at 1 μM
SW-620 [2] = experiment: as above; type: cell-based; settings: Homo sapiens, SW-620 (colon), 48 h exposure, read-out: % of growth inhibition
Experimental: as §1, with “cells. A protocol of 48 h continuous drug exposure has been used, and a sulforhodamine B (SRB) protein assay was used to estimate cell viability or growth.” for “cells.”
as §2

Compound	inhibition at 10 µM (PC-3) [%]	inhibition at 10 µM (A-549) [%]	inhibition at 10 µM (IGR-OV-1) [%]	inhibition at 10 µM (MCF7) [%]	inhibition at 10 µM (Colo-205) [%]	inhibition at 10 µM (SF-295) [%]	inhibition at 10 µM (human tumor cell lines) [%]	% of growth inhibition (PC-3; reference drug at 1 μM) [%]	% of growth inhibition (A-549; reference drug at 1 μM) [%]	% of growth inhibition (IGR-OV-1; reference drug at 1 μM) [%]	% of growth inhibition (SW-620 [1]) [%]	% of growth inhibition (MCF7; reference drug at 1 μM) [%]	% of growth inhibition (Colo-205; reference drug at 1 μM) [%]	% of growth inhibition (SF-295; reference drug at 1 μM) [%]	inhibition at 10 µM (SW-620 [2]) [%]
COc1ccc(/C=C\c2cc(OC)c(OC)c(OC)c2)cc1OCCCCOc1ccc(-c2nc3ccccc3s2)cc1 [Compound 9h, 2-[4-(4-{2-methoxy-5-[(Z)-2-(3,4,5-trimethoxyphenyl)-1-ethenyl]phenoxy}butoxy)phenyl]-1,3-benzothiazole]	65	63	54	64	15	34	1 to 100								
COc1ccc(/C=C\c2cc(OC)c(OC)c(OC)c2)cc1OCCCCOc1cc(-c2nc3ccccc3s2)ccc1OC [Compound 9m, 2-[4-methoxy-3-(4-{2-methoxy-5-[(Z)-2-(3,4,5-trimethoxyphenyl)-1-ethenyl]phenoxy}butoxy)phenyl]-1,3-benzothiazole]	68	73	58	64	70	44	1 to 100								
COc1cccc2c1C(=O)c1c(O)c3c(c(O)c1C2=O)C[C@@](O)(C(=O)CO)C[C@@H]3O[C@H]1C[C@H](N)[C@H](O)[C@H](C)O1 [Adriyamycin, reference compound]								55	95	78	21	69	77	55	
O=c1[nH]cc(F)c(=O)[nH]1 [5-Fluoro uracil, reference compound]	29	64	47	66	55	9									41
